Here are results for 31 compounds from patent publication US8937078B2, “Quinazolinones as prolyl hydroxylase inhibitors” (Janssen Pharmaceutica NV, priority 2009, dated 2015).

One assay concerns Hep-3B cells. Description: Cellular assay: erythropoietin secretion in Hep-3B cells. The assay is classed as cell-based, human. Conditions: Homo sapiens, Hep3B, 100 μM compound, 24 hours, percent of EPO secretion relative to assay control compound 7-[(4-Chloro-phenyl)-(5-methyl-isoxazol-3-ylamino)-methyl]-quinolin-8-ol, read-out: Cellular % EPO Stimulation. In outline: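 Hep-3B cells in DMEM with 10% FBS, treated 24 h after plating with compounds at 100 μM final for a further 24 h. Secreted EPO in supernatant measured by MSD electrochemiluminescence sandwich immunoassay with anti-EPO detection antibody.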

The target of a further assay is T1, human PHD2 (PHD2181-417) (Homo sapiens, UniProt Q9GZT9).
T1 construct: Smt (SUMO) tag (cleaved yes); made in house; host or cells: E. coli BL21 (pBAD vector)
T1 sequence (Q9GZT9 181-417): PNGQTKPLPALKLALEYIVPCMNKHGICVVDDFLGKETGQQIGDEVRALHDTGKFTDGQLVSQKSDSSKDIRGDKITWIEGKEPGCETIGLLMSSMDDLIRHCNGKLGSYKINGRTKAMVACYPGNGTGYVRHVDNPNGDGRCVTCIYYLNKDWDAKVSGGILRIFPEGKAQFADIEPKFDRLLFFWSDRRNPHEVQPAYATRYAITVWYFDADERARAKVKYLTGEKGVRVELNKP
The assay is described as follows: PHD enzymatic assay ([14C]-succinic acid production). The assay is classed as biochemical. Conditions: PHD2181-417, HIF-1α peptide 10 μM, average of results; read-out: Enzyme pIC50 (converted). In a few lines:
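Activity measured as [14C]-succinic acid formed from [5-14C]-2-oxoglutarate over 10 minutes, with peptide substrate at 10 μM, in Tris-HCl pH 7.5 buffer containing catalase, DTT and ascorbate. Unreacted oxoglutarate removed by DNP derivatisation; supernatant beta-counted.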

Turning to `O=C(O)c1cnn(-c2nc3cc(F)cc(F)c3c(=O)[nH]2)c1` [Example 131, 1-(5,7-Difluoro-4-oxo-3,4-dihydro-quinazolin-2-yl)-1H-pyrazole-4-carboxylic acid], the Emax at 100 µM with Hep-3B cells was 21%. Moreover, the IC50 on human PHD2 (PHD2181-417) is 63.1 nM.
In the same order, the values of `O=C(O)c1cnn(-c2nc3cc(Cl)cc(Cl)c3c(=O)[nH]2)c1` [Example 132, 1-(5,7-Dichloro-4-oxo-3,4-dihydro-quinazolin-2-yl)-1H-pyrazole-4-carboxylic acid] are 16% and 126 nM.
Consider `O=C(O)c1cnn(-c2nc3cc(F)ccc3c(=O)[nH]2)c1` [Example 133, 1-(7-Fluoro-4-oxo-3,4-dihydro-quinazolin-2-yl)-1H-pyrazole-4-carboxylic acid], for which the Emax at 100 µM in the assay with Hep-3B cells is 10%. For the same compound, on human PHD2 (PHD2181-417), the IC50 is 39.8 nM.
In the same order, the values of `O=C(O)c1cnn(-c2nc3cc(Br)ccc3c(=O)[nH]2)c1` [Example 134, 1-(7-Bromo-4-oxo-3,4-dihydro-quinazolin-2-yl)-1H-pyrazole-4-carboxylic acid] are 18% and 50.1 nM.
The like results for `COc1ccc2c(=O)[nH]c(-n3cc(C(=O)O)cn3)nc2c1` [Example 135, 1-(7-Methoxy-4-oxo-3,4-dihydro-quinazolin-2-yl)-1H-pyrazole-4-carboxylic acid] were, in that order, 17% and 79.4 nM.
In the same order, the values of `O=C(O)c1cnn(-c2nc3cc(Cc4ccccc4)ccc3c(=O)[nH]2)c1` [Example 136, 1-(7-Benzyl-4-oxo-3,4-dihydro-quinazolin-2-yl)-1H-pyrazole-4-carboxylic acid] are 23% and 31.6 nM.
As for `O=C(O)c1cnn(-c2nc3cc4c(cc3c(=O)[nH]2)OCCCO4)c1` [Example 137, 1-(4-Oxo-3,4,8,9-tetrahydro-7H-6,10-dioxa-1,3-diaza-cyclohepta[b]naphthalen-2-yl)-1H-pyrazole-4-carboxylic acid], the Emax at 100 µM with Hep-3B cells worked out at 15%. Also, at human PHD2 (PHD2181-417), the IC50 is 50.1 nM.
In the case of `O=C(O)c1cnn(-c2nc3c4c(ccc3c(=O)[nH]2)OCCO4)c1` [Example 138, 1-(8-Oxo-2,3,7,8-tetrahydro-1,4-dioxa-5,7-diaza-phenanthren-6-yl)-1H-pyrazole-4-carboxylic acid], the Emax at 100 µM in the assay with Hep-3B cells was determined as 40%. Further, at human PHD2 (PHD2181-417), the IC50 is 251 nM.
The like results for `O=C(O)c1cnn(-c2nc3cc4c(cc3c(=O)[nH]2)OCCO4)c1` [Example 139, 1-(4-Oxo-3,4,7,8-tetrahydro-[1,4]dioxino[2,3-g]quinazolin-2-yl)-1H-pyrazole-4-carboxylic acid] were, in that order, 15% and 35.5 nM.
The like results for `O=C(O)c1cnn(-c2nc3cc4c(cc3c(=O)[nH]2)CCC4)c1` [Example 140, 1-(4-Oxo-4,6,7,8-tetrahydro-3H-cyclopenta[g]quinazolin-2-yl)-1H-pyrazole-4-carboxylic acid] were, in that order, 62% and 35.5 nM.
In the same order, the values of `O=C(O)c1cnn(-c2nc3c4c(ccc3c(=O)[nH]2)CCC4)c1` [Example 141, 1-(6-Oxo-2,3,6,7-tetrahydro-1H-7,9-diaza-cyclopenta[a]naphthalen-8-yl)-1H-pyrazole-4-carboxylic acid] are 25% and 501 nM.
In the case of `O=C(O)c1cnn(-c2nc3c4c(ccc3c(=O)[nH]2)CCCC4)c1` [Example 142, 1-(4-Oxo-3,4,7,8,9,10-hexahydro-benzo[h]quinazolin-2-yl)-1H-pyrazole-4-carboxylic acid], the Emax at 100 µM with Hep-3B cells came out at 23%. Further, the IC50 on human PHD2 (PHD2181-417) was 251 nM.
`O=C(O)c1cnn(-c2nc3cc4c(cc3c(=O)[nH]2)CCCC4)c1` [Example 143, 1-(4-Oxo-3,4,6,7,8,9-hexahydro-benzo[g]quinazolin-2-yl)-1H-pyrazole-4-carboxylic acid]: in the assay on Hep-3B cells, the Emax at 100 µM turned out to be 75%. Further, the IC50 at human PHD2 (PHD2181-417) was 31.6 nM.
The like results for `O=C(O)c1cnn(-c2nc3ccc4c(c3c(=O)[nH]2)CCCC4)c1` [Example 144, 1-(1-Oxo-1,2,7,8,9,10-hexahydro-benzo[f]quinazolin-3-yl)-1H-pyrazole-4-carboxylic acid] were, in that order, 42% and 39.8 nM.
Turning to `Cc1cc(C)c2c(=O)[nH]c(-n3cc(C(=O)O)cn3)nc2c1` [Example 145, 1-(5,7-Dimethyl-4-oxo-3,4-dihydro-quinazolin-2-yl)-1H-pyrazole-4-carboxylic acid], the Emax at 100 µM in the assay with Hep-3B cells came to 16%. The IC50 at human PHD2 (PHD2181-417) is 398 nM.
In the same order, the values of `CC(C)c1ccc2c(=O)[nH]c(-n3cc(C(=O)O)cn3)nc2c1` [Example 146, 1-(7-Isopropyl-4-oxo-3,4-dihydro-quinazolin-2-yl)-1H-pyrazole-4-carboxylic acid] are 16% and 126 nM.
As for `CC(C)(C)c1ccc2c(=O)[nH]c(-n3cc(C(=O)O)cn3)nc2c1` [Example 147, 1-(7-tert-Butyl-4-oxo-3,4-dihydro-quinazolin-2-yl)-1H-pyrazole-4-carboxylic acid], the Emax at 100 µM with Hep-3B cells came to 11%. The IC50 at human PHD2 (PHD2181-417) is 398 nM.
In the same order, the values of `O=C(O)c1cnn(-c2nc3cc(OC(F)(F)F)ccc3c(=O)[nH]2)c1` [Example 148, 1-(4-Oxo-7-trifluoromethoxy-3,4-dihydro-quinazolin-2-yl)-1H-pyrazole-4-carboxylic acid] are 10% and 126 nM.
The like results for `CC(C)Oc1ccc2c(=O)[nH]c(-n3cc(C(=O)O)cn3)nc2c1` [Example 149, 1-(7-Isopropoxy-4-oxo-3,4-dihydro-quinazolin-2-yl)-1H-pyrazole-4-carboxylic acid] were, in that order, 9% and 398 nM.
The like results for `CN(C)c1ccc2c(=O)[nH]c(-n3cc(C(=O)O)cn3)nc2c1` [Example 150, 1-(7-Dimethylamino-4-oxo-3,4-dihydro-quinazolin-2-yl)-1H-pyrazole-4-carboxylic acid] were, in that order, 24% and 158 nM.
For `CN(C)c1cccc2nc(-n3cc(C(=O)O)cn3)[nH]c(=O)c12` [Example 151, 1-(5-Dimethylamino-4-oxo-3,4-dihydro-quinazolin-2-yl)-1H-pyrazole-4-carboxylic acid], in the assay with Hep-3B cells, the Emax at 100 µM stood at 11%. Also, the IC50 on human PHD2 (PHD2181-417) is 631 nM.
The like results for `CCOc1ccc2c(=O)[nH]c(-n3cc(C(=O)O)cn3)nc2c1` [Example 152, 1-(7-Ethoxy-4-oxo-3,4-dihydro-quinazolin-2-yl)-1H-pyrazole-4-carboxylic acid] were, in that order, 38% and 158 nM.
In the same order, the values of `O=C(O)c1cnn(-c2nc3ccc(Cl)cc3c(=O)[nH]2)c1` [Example 153, 1-(6-Chloro-4-oxo-3,4-dihydro-quinazolin-2-yl)-1H-pyrazole-4-carboxylic acid] are 22% and 39.8 nM.
The like results for `O=C(O)c1cnn(-c2nc3cc(O)ccc3c(=O)[nH]2)c1` [Example 154, 1-(7-Hydroxy-4-oxo-3,4-dihydro-quinazolin-2-yl)-1H-pyrazole-4-carboxylic acid] were, in that order, 12% and 50.1 nM.
For the compound `CSc1ccc2nc(-n3cc(C(=O)O)cn3)[nH]c(=O)c2c1` [Example 155, 1-(6-Methylsulfanyl-4-oxo-3,4-dihydro-quinazolin-2-yl)-1H-pyrazole-4-carboxylic acid], the Emax at 100 µM in the assay with Hep-3B cells was found to be 40%. At human PHD2 (PHD2181-417), the IC50 was 31.6 nM.
The like results for `O=C(O)c1cnn(-c2nc3ccc(SC(F)(F)F)cc3c(=O)[nH]2)c1` [Example 156, 1-(4-Oxo-6-trifluoromethylsulfanyl-3,4-dihydro-quinazolin-2-yl)-1H-pyrazole-4-carboxylic acid] were, in that order, 19% and 31.6 nM.
The like results for `CS(=O)(=O)c1ccc2nc(-n3cc(C(=O)O)cn3)[nH]c(=O)c2c1` [Example 157, 1-(6-Methanesulfonyl-4-oxo-3,4-dihydro-quinazolin-2-yl)-1H-pyrazole-4-carboxylic acid] were, in that order, 17% and 31.6 nM.
In the same order, the values of `CSc1cc2c(=O)[nH]c(-n3cc(C(=O)O)cn3)nc2cc1Cl` [Example 158, 1-(7-Chloro-6-methylsulfanyl-4-oxo-3,4-dihydro-quinazolin-2-yl)-1H-pyrazole-4-carboxylic acid] are 15% and 39.8 nM.
With `O=C(O)c1cnn(-c2nc3cc(Cl)c(SC(F)(F)F)cc3c(=O)[nH]2)c1` [Example 159, 1-(7-Chloro-4-oxo-6-trifluoromethylsulfanyl-3,4-dihydro-quinazolin-2-yl)-1H-pyrazole-4-carboxylic acid], the Emax at 100 µM with Hep-3B cells came out at 16%. Further, on human PHD2 (PHD2181-417), the IC50 was 25.1 nM.
In the same order, the values of `O=C(O)c1cnn(-c2nc3cc(Cl)c([S+]([O-])C(F)(F)F)cc3c(=O)[nH]2)c1` (centres unmarked) [Example 160, 1-(7-Chloro-4-oxo-6-trifluoromethanesulfinyl-3,4-dihydro-quinazolin-2-yl)-1H-pyrazole-4-carboxylic acid] are 13% and 39.8 nM.
On to `O=C(O)c1cnn(-c2nc3ccc(S(=O)(=O)N4CCCC4)cc3c(=O)[nH]2)c1` [Example 161, 1-[4-Oxo-6-(pyrrolidine-1-sulfonyl)-3,4-dihydro-quinazolin-2-yl]-1H-pyrazole-4-carboxylic acid], for which the Emax at 100 µM with Hep-3B cells was 17%. Moreover, the IC50 at human PHD2 (PHD2181-417) was 39.8 nM.
